In brackets after ≈: the same amount, converted by molar mass.
Tests used:
Artemia = experiment: Toxicity in brine shrimp; format: organism-based; conditions: in vivo
A549 = experiment: Cytotoxicity against human A549 cells; format: functional; conditions: read-out: ED50 (the source's name)
SK-MEL-2 = experiment: Cytotoxicity against human SK-MEL-2 cells; format: functional; conditions: read-out: ED50 (the source's name)
SK-OV-3 = experiment: Cytotoxicity against human SKOV3 cells; format: functional; conditions: read-out: ED50 (the source's name)
HCT-15 = experiment: Cytotoxicity against human HCT15 cells; format: functional; conditions: read-out: ED50 (the source's name)

SMILES | LD50 (Artemia) | other results
C=C1CC[C@H](C(C)C)[C@@H]2[C@H]1[C@@H]1C/C(C)=C/CC[C@@](C)(OC(C)=O)[C@H]2O1 [CLADIELLIN] | 1.3 ppm | –
CC1=CC[C@H](C(C)C)[C@@H]2[C@H]1[C@@H]1C/C(C)=C/CC[C@@](C)(O)[C@H]2O1 | 39.2 ppm | –
CC(=O)O[C@]1(C)CC/C=C(\C)C[C@@H]2O[C@H]1[C@H]1[C@@H]2C(C)=CC[C@@H]1C(C)C | 0.3 ppm | EC50 (A549): 12.7 mg/L (≈ 36.7 µM); EC50 (SK-MEL-2): 11.6 mg/L (≈ 33.5 µM); EC50 (SK-OV-3): 21.3 mg/L (≈ 61.5 µM); EC50 (HCT-15): 13.9 mg/L (≈ 40.1 µM)
C=C1C[C@@H]2O[C@@H]([C@H]3[C@@H]2C(C)=C[C@@H](OC(C)=O)[C@@H]3C(C)(C)OC(C)=O)[C@](C)(OC(C)=O)CC[C@@H]1OC(C)=O [ASTROGORGIN] | 1.8 ppm | –
CC(=O)O[C@@H]1C=C(C)[C@H]2[C@@H]([C@H]1C(C)C)[C@@H]1O[C@H]2C/C(C)=C/CC[C@@]1(C)OC(C)=O [CALICOPHIRIN B] | 1 ppm | –
CC1=C[C@@H](O)[C@H](C(C)(C)O)[C@@H]2[C@H]1[C@@H]1C/C(C)=C/CC[C@@](C)(O)[C@H]2O1 | 48 ppm | –
CC(=O)O[C@@H]1C=C(C)[C@H]2[C@@H]([C@H]1C(C)(C)OC(C)=O)[C@@H]1O[C@H]2C/C(C)=C/CC[C@@]1(C)OC(C)=O [OPHIRIN] | 8.7 ppm | –

Source: ChEMBL document CHEMBL1146392, “Isolation of Diterpenoids of the Cladiellane Class from Gorgonians of the Genus Muricella” (J Nat Prod, 1997)
